Key:
in vitro = settings: human
HIV = experiment: microbe, parasite or virus in culture; assay type: cell-based; settings: for EC50: Human immunodeficiency virus 1, A549
H5N1 virus = experiment: microbe, parasite or virus in culture; assay type: cell-based, H5N1 influenza virus; settings: Influenza A virus, read-out: % Inhibition against H5N1 virus; for inhibition at 1 µg/mL: H5N1, A549, 1000 ng/mL; for inhibition at 5 µg/mL: H5N1, A549, 5000 ng/mL; for inhibition at 0.05 µg/mL: H5N1, A549, 50 ng/mL; for inhibition at 0.25 µg/mL: H5N1, A549, 250 ng/mL

SMILES | CC50 (in vitro; CC50 (nM)) | EC50 (HIV) | other results
COc1cc2c(OCC(=O)OC(C)(C)C)c3c(c(-c4ccc5c(c4)OCO5)c2cc1OC)C(=O)OC3 [Compound 12a] | > 10100 nM | 518 nM | –
COc1cc2c(OCC(=O)O)c3c(c(-c4ccc5c(c4)OCO5)c2cc1OC)C(=O)OC3 [Compound 13] | > 114000 nM | 23100 nM | –
COc1cc2c(OCC(N)=O)c3c(c(-c4ccc5c(c4)OCO5)c2cc1OC)C(=O)OC3 [Compound 14a] | 548 nM | 103 nM | –
CNC(=O)COc1c2c(c(-c3ccc4c(c3)OCO4)c3cc(OC)c(OC)cc13)C(=O)OC2 [Compound 14b] | 2120 nM | 278 nM | –
COc1cc2c(OCCO)c3c(c(-c4ccc5c(c4)OCO5)c2cc1OC)C(=O)OC3 [Compound 15a] | 918 nM | 33.6 nM | –
COc1cc2c(OCC(C)(C)O)c3c(c(-c4ccc5c(c4)OCO5)c2cc1OC)C(=O)OC3 [Compound 15b] | 1330 nM | 15.5 nM | –
COc1cc2c(OC(C)=O)c3c(c(-c4ccc5c(c4)OCO5)c2cc1OC)C(=O)OC3 [Compound 16] | 3400 nM | – | –
COc1cc2c(OC)c3c(c(-c4ccc5c(c4)OCO5)c2cc1OC)C(=O)OC3 [Compound 17b] | 2140 nM | 2.6 nM | anti-HIV activity in terms of SI values (HIV): much more improved anti-HIV activity
C#CCOc1c2c(c(-c3ccc4c(c3)OCO4)c3cc(OC)c(OC)cc13)C(=O)OC2 [Compound 17c] | 890 nM | 4.8 nM | anti-HIV activity in terms of SI values (HIV): much more improved anti-HIV activity
COc1cc2c(Oc3ncccn3)c3c(c(-c4ccc5c(c4)OCO5)c2cc1OC)C(=O)OC3 [Compound 17d] | 61100 nM | 1590 nM | –
COc1cc2c(OC(=O)C3CCCC3)c3c(c(-c4ccc5c(c4)OCO5)c2cc1OC)C(=O)OC3 [Compound 17f] | 7070 nM | 772 nM | –
COc1cc2c(OC(=O)c3ccc(F)cc3)c3c(c(-c4ccc5c(c4)OCO5)c2cc1OC)C(=O)OC3 [Compound 17g] | 1320 nM | 79.9 nM | –
COc1ccc(C(=O)Oc2c3c(c(-c4ccc5c(c4)OCO5)c4cc(OC)c(OC)cc24)C(=O)OC3)cc1 [Compound 17h] | 1460 nM | 96.5 nM | –
COc1cc2c(OS(=O)(=O)C(F)(F)F)c3c(c(-c4ccc5c(c4)OCO5)c2cc1OC)C(=O)OC3 [Compound 18] | 1360 nM | 488 nM | –
COc1cc2c(C)c3c(c(-c4ccc5c(c4)OCO5)c2cc1OC)C(=O)OC3 [Compound 19b] | 77.3 nM | 6.1 nM | –
COc1cc2c(-c3ccncc3)c3c(c(-c4ccc5c(c4)OCO5)c2cc1OC)C(=O)OC3 [Compound 19c] | 1670 nM | 88.9 nM | –
COc1cc2cc3c(c(-c4ccc5c(c4)OCO5)c2cc1OC)C(=O)OC3 [Compound 19d] | 5430 nM | 22.9 nM | anti-HIV activity in terms of SI values (HIV): much more improved anti-HIV activity
COc1cc2c(Nc3ccc(C(F)(F)F)cc3)c3c(c(-c4ccc5c(c4)OCO5)c2cc1OC)C(=O)OC3 [Compound 19e] | > 9550 nM | 212 nM | –
COc1cc2c(Nc3ccccc3)c3c(c(-c4ccc5c(c4)OCO5)c2cc1OC)C(=O)OC3 [Compound 19f] | 4510 nM | 976 nM | –
CCc1c2c(c(-c3ccc4c(c3)OCO4)c3cc(OC)c(OC)cc13)C(=O)OC2 [Compound 19g] | 196 nM | 19.3 nM | –
COc1cc2c(-c3cccs3)c3c(c(-c4ccc5c(c4)OCO5)c2cc1OC)C(=O)OC3 [Compound 19h] | 2390 nM | 270 nM | –
COc1cc2c(-c3cccnc3)c3c(c(-c4ccc5c(c4)OCO5)c2cc1OC)C(=O)OC3 [Compound 19i] | 38400 nM | 877 nM | –
COc1cc2c(-c3ccco3)c3c(c(-c4ccc5c(c4)OCO5)c2cc1OC)C(=O)OC3 [Compound 19k] | 1060 nM | 60.1 nM | –
COc1cc2c(C3=CCN(C(=O)OC(C)(C)C)CC3)c3c(c(-c4ccc5c(c4)OCO5)c2cc1OC)C(=O)OC3 [Compound 19l] | 4190 nM | 75.9 nM | –

SMILES | CC50 (in vitro; CC50 (nM)) | EC50 (HIV) | other results
COc1cc2c(-c3ccc4c(c3)OCO4)c3c(c(N4CCOCC4)c2cc1OC)COC3=O [Compound 19m] | 1500 nM | 88.6 nM | –
COc1cc2c(C(C)=O)c3c(c(-c4ccc5c(c4)OCO5)c2cc1OC)C(=O)OC3 [Compound 19n] | 1060 nM | 39.5 nM | –
COc1cc2c(C#C[Si](C)(C)C)c3c(c(-c4ccc5c(c4)OCO5)c2cc1OC)C(=O)OC3 [Compound 19o] | 1220 nM | 35.7 nM | –
COc1cc2c(-c3ccc4c(c3)OCO4)c3c(c(C(C)O)c2cc1OC)COC3=O (stereo not shown) [Compound 20] | 389 nM | 21.7 nM | –
COc1cc2c(N)c3c(c(-c4ccc5c(c4)OCO5)c2cc1OC)C(=O)OC3 [Compound 22] | 358 nM | 1.61 nM | anti-HIV activity in terms of SI values (HIV): much more improved anti-HIV activity
COc1cc2c(NC(C)=O)c3c(c(-c4ccc5c(c4)OCO5)c2cc1OC)C(=O)OC3 [Compound 24] | > 11900 nM | 88.9 nM | –
COc1cc2c(OC3O[C@H](C)[C@@H](OC(C)=O)[C@H](OC(C)=O)[C@H]3OC(C)=O)c3c(c(-c4ccc5c(c4)OCO5)c2cc1OC)C(=O)OC3 (stereo partly shown) [Compound 25b, Peracetylated Patentiflorin A] | 259 nM | – | –
COc1cc2c(OC3OC[C@@H](O)[C@H](O)[C@H]3O)c3c(c(-c4ccc5c(c4)OCO5)c2cc1OC)C(=O)OC3 (stereo partly drawn) [Compound 26a, 7β-D-xylosyloxydiphyllin] | 6220 nM | – | inhibition at 1 µg/mL (H5N1 virus): 93.6%; inhibition at 5 µg/mL (H5N1 virus): 97.8%
COc1cc2c(OC3OC[C@H](O)[C@H](O)[C@H]3O)c3c(c(-c4ccc5c(c4)OCO5)c2cc1OC)C(=O)OC3 (stereo partly drawn) [Compound 26c, 7-O-α-L-arabinosyldiphyllin] | > 9760 nM | – | –
COc1cc2c(OC3O[C@@H](C)[C@@H](O)[C@@H](O)[C@@H]3O)c3c(c(-c4ccc5c(c4)OCO5)c2cc1OC)C(=O)OC3 (stereo partly drawn) [Compound 26d, 7-O-β-L-fucopyranosyldiphyllin] | > 9500 nM | 42.3 nM | anti-HIV activity in terms of SI values (HIV): much more improved anti-HIV activity
COc1cc2c(OC3OC[C@@H](O)[C@H](OC(C)=O)[C@H]3O)c3c(c(-c4ccc5c(c4)OCO5)c2cc1OC)C(=O)OC3 (stereo partly drawn) [Compound 27ab, 3″-Acetyl-7-O-β-D-xylosyldiphyllin] | 2760 nM | – | inhibition at 1 µg/mL (H5N1 virus): 96.9%; inhibition at 5 µg/mL (H5N1 virus): 97.8%
COc1cc2c(OC3OC[C@@H](O)[C@H](O)[C@H]3OC(C)=O)c3c(c(-c4ccc5c(c4)OCO5)c2cc1OC)C(=O)OC3 (stereo partly shown) [Compound 27ac] | 2940 nM | – | –
COc1cc2c(OC3OC[C@@H](OC(C)=O)[C@H](OC(C)=O)[C@H]3O)c3c(c(-c4ccc5c(c4)OCO5)c2cc1OC)C(=O)OC3 (stereo partly drawn) [Compound 27ad, 3″, 4″-Diacetyl-7-O-β-D-xylosyldiphyllin] | 783 nM | – | –
COc1cc2c(OC3OC[C@@H](OC(C)=O)[C@H](O)[C@H]3OC(C)=O)c3c(c(-c4ccc5c(c4)OCO5)c2cc1OC)C(=O)OC3 (stereo partly drawn) [Compound 27ae, 2″,4″-Diacetyl-7-O-β-D-xylosyldiphyllin] | 2590 nM | – | –
COc1cc2c(OC3OC[C@@H](O)[C@H](OC(C)=O)[C@H]3OC(C)=O)c3c(c(-c4ccc5c(c4)OCO5)c2cc1OC)C(=O)OC3 (stereo partly drawn) [Compound 27af, 2″,3″-Diacetyl-7-O-β-D-xylosyldiphyllin] | 2250 nM | – | –
COc1cc2c(OC3O[C@H](C)[C@@H](OC(C)=O)[C@H](O)[C@H]3O)c3c(c(-c4ccc5c(c4)OCO5)c2cc1OC)C(=O)OC3 (stereo partly drawn) [Compound 27ba, 4″-Acetyl-7-O-β-D-patentiflorin A] | 1160 nM | 8.47 nM | –
COc1cc2c(OC3O[C@H](C)[C@@H](O)[C@H](OC(C)=O)[C@H]3O)c3c(c(-c4ccc5c(c4)OCO5)c2cc1OC)C(=O)OC3 (stereo partly drawn) [Compound 27bb, 3″-Acetyl-7-O-β-D-patentiflorin A] | 589 nM | 1.01 nM | anti-HIV activity in terms of SI values (HIV): much more improved anti-HIV activity
COc1cc2c(OC3O[C@H](C)[C@@H](OC(C)=O)[C@H](OC(C)=O)[C@H]3O)c3c(c(-c4ccc5c(c4)OCO5)c2cc1OC)C(=O)OC3 (stereo partly drawn) [Compound 27bd, 3″, 4″-Diacetyl-7-O-β-D-patentiflorin A] | 421 nM | 6.39 nM | –
COc1cc2c(OC3O[C@H](C)[C@@H](O)[C@H](OC(=O)N(C)C)[C@H]3O)c3c(c(-c4ccc5c(c4)OCO5)c2cc1OC)C(=O)OC3 (stereo partly drawn) [Compound 31f, 3″-O-dimethylcarbamyl-7-O-β-D-patentiflorin A] | 3.74 nM | – | –
COc1cc2c(OC3O[C@H](C)[C@@H](O)[C@H](OC(=O)c4ccc(Cl)cc4)[C@H]3O)c3c(c(-c4ccc5c(c4)OCO5)c2cc1OC)C(=O)OC3 (stereo partly drawn) [Compound 31h, 3″-O-p-chlorobenzoyl-7-O-β-D-patentiflorin A] | 336 nM | – | inhibition at 0.05 µg/mL (H5N1 virus): 94.6%; inhibition at 0.25 µg/mL (H5N1 virus): 97.6%
COc1cc2c(OC3O[C@H](C)[C@@H](O)[C@H](OC(=O)c4cnccn4)[C@H]3O)c3c(c(-c4ccc5c(c4)OCO5)c2cc1OC)C(=O)OC3 (stereo partly drawn) [Compound 31i, 3″-O-pyrazinecarbonyl-7-O-β-D-patentiflorin A] | – | – | anti-HIV activity in terms of SI values (HIV): much more improved anti-HIV activity
COc1cc2c(OC3O[C@H](C)[C@@H](O)[C@H](OC(=O)C(Cl)(Cl)Cl)[C@H]3O)c3c(c(-c4ccc5c(c4)OCO5)c2cc1OC)C(=O)OC3 (stereo partly drawn) [Compound 31k, 3″-O-trichloroacetyl-7-O-β-D-patentiflorin A] | 508 nM | – | inhibition at 0.05 µg/mL (H5N1 virus): 86%; inhibition at 0.25 µg/mL (H5N1 virus): 95.7%
CC(=O)O[C@H]1C(=O)[C@@]2(C)[C@H]([C@H](OC(=O)c3ccccc3)[C@]3(O)C[C@H](OC(=O)[C@H](O)[C@@H](NC(=O)c4ccccc4)c4ccccc4)C(C)=C1C3(C)C)[C@]1(OC(C)=O)CO[C@@H]1C[C@@H]2O [taxol, reference compound] | – | – | CC50 (in vitro; CC50 against the host cell line A549): 2.99 nM

Reference: patent US11638713B2, “Patentiflorin A analogs as antiviral agents” (priority 2019, dated 2023)
